Data from a compilation of properties of binary mixtures (doi:10.1016/j.molliq.2012.09.002).

Assay: xn = mol fraction of the nth substance listed
Conditions: 101 kPa

CCCCCC[n+]1ccn(C)c1.F[B-](F)(F)F + CN(CCO)CCO
viscosity [mPa·s]
Conditions	x2 = 0	x2 = 0.097	x2 = 0.192	x2 = 0.2909	x2 = 0.3916	x2 = 0.4949	x2 = 0.5936	x2 = 0.6935	x2 = 0.7928	x2 = 0.8824
303.15 K	85	81.7	78.6	75.6	–	–	67.1	64.6	–	60.1
308.15 K	69	65.9	63.1	60.3	57.6	55.1	52.7	50.5	48.3	46.5
313.15 K	55	52.5	50.2	48	45.8	43.7	–	40	38.3	–
318.15 K	43	41.1	39.3	37.6	35.9	–	32.8	31.4	30.1	28.9
323.15 K	36	34.2	32.6	31	29.5	28	26.7	25.5	24.3	23.3

CN(CCO)CCO + CCCCCC[n+]1ccn(C)c1.F[B-](F)(F)F
x1 = 1
Conditions	viscosity [mPa·s]
318.15 K	27.5
323.15 K	22
